According to patent US10308649B2, “Compounds and methods to suppress autoimmune response” (Oregon State University, priority 2014, dated 2019):

Tests used:
[1] = system: AhR; assay: XRE-luciferase reporter gene in Hepa-1 cells expressing endogenous AhR; type: cell-based, mouse; conditions: for XRE-luciferase reporter activity, in words: 16 hours after treating; for fold activation of AhR (reporter gene activity): 10 nM, 12 hours
Experimental: FIGS. 9a-9f illustrate activity studies for 10-Cl-BBQ, 11-Cl-BBQ, and combinations thereof. Hepa-1 cells expressing endogenous AhR were transfected with a xenobiotic responsive element (XRE)-luciferase reporter gene. […] The activity was measured 16 hours after treating the cells with the various concentrations.
The reporter gene activity was measured after 12 hours of treatment with TCDD at a concentration of 1 nM or with the indicated concentrations of AHRL1.
Hepa-1 cells expressing endogenous AhR were transfected with a XRE-luciferase reporter gene. […] The mean luciferase activity is shown with SEM.

[2] = Serum pharmacokinetics after i.p. injection; conditions: mouse
Experimental: FIGS. 13a and 13b show the pharmacokinetics of AHRL1. To determine the half-life of AHRL1, mice were treated with a single intraperitoneal injection of the chemical, and serum concentrations were measured over time by mass spectrometry. In FIG. 13a, C57BL/6 mice were given 10 mg/kg AHRL1 by i.p. injection. Blood was collected at the indicated times by cardiac puncture. The blood serum was processed to remove protein and the samples were analyzed by QTRAP 4000 LC/MS/MS. The blood serum concentration of AHRL1 was determined from a standard curve based on known concentrations of AHRL1.
Based on the model, the serum half-life of AHRL1 is approximately 2 hours. Additional kinetic parameters include the absorption rate constant (ka) which was 1.2 h^−1. […] The area under the concentration-time curve (AUC0-∞) was 102.5 mg/L*h.

[3] = biological target: T1, AhR (Mus musculus, UniProt P30561); assay: Competitive inhibition of [3H] 3-MC binding to AhR; conditions: for fold lower / less active than TCDD: relative to IC50 of TCDD
T1 sequence (P30561 10-848): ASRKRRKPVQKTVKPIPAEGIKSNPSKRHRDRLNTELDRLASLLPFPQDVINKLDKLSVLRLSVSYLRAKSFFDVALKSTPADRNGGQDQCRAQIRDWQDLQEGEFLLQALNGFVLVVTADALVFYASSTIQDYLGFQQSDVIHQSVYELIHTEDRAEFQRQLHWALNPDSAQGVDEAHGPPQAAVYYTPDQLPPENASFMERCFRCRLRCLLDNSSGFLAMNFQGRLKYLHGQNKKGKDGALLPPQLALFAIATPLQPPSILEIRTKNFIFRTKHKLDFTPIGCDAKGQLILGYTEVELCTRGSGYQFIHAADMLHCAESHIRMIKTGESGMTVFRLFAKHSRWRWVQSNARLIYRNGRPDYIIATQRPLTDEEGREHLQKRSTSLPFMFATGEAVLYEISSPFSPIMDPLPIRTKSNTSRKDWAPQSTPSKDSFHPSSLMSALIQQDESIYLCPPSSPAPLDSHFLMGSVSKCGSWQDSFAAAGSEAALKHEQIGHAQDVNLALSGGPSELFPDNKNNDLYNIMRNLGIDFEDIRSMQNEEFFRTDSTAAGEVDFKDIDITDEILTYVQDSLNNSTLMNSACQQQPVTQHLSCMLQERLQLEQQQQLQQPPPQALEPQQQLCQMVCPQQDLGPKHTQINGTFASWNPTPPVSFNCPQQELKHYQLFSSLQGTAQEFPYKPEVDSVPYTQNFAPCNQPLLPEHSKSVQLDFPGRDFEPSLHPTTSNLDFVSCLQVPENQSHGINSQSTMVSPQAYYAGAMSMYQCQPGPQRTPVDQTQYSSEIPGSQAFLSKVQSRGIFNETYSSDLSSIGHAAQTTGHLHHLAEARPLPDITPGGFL
Excerpt: 3-MC binding to AhR. […] 3-methylcholanthrene (3-MC) to AhR.

[4] = system: donor CD4+ T cells; assay: Acute graft versus host model: Treg phenotype of alloactivated donor CD4+ T cells; type: in vivo, mouse; conditions: 10 mg/kg day 0 and day 1, day 2, p-value=0.05
Experimental: FIGS. 14a-14i show AHRL1 induces an AhR-dependent Treg phenotype by a mechanism that is mediated by the AhR in donor CD4+ T cells. The AhR-induced Tregs were identified as the CD4+CD25+CTLA-4+CD62L^low population of T cells. To determine if AHRL1 induced changes in donor CD4+ T cells, AHRL1 was compared with TCDD and the vehicle. On day 0, B6D2F1 host mice in groups of 5 were injected with CFSE-labeled C57BL/6 (H-2^b/b) T cells and given 15 mg/kg of AHRL1, 15 μg/kg of TCDD, or vehicle by i.p. injection. At 24 hours, an additional dose of 7 mg/kg of AHRL1 or vehicle was given. Mice that were treated with TCDD at the time of donor cell transfer were used as positive controls. Splenocytes were isolated on day 2 for phenotypic analysis of the alloresponsive (CFSE-diluted) donor CD4+ T cells. Splenocytes were harvested from the host mice and the CD4+ T cells were identified by flow cytometry.
On day 0, B6D2F1 host mice in groups of 5 were injected with donor T cells obtained from AhR^+/+ or AhR-deficient (AhR^−/−) C57BL/6 mice. Host mice were treated with 2 mg/kg of AHRL1 or vehicle immediately following donor cell transfer and again at 24 hours. […] Thus, the AhR in the CD4+ T cell is the primary target driving the AhR-Treg phenotype.
On day 0, B6D2F1 host mice in groups of 3-5 were injected with C57BL/6 T cells. Mice were immediately treated with 0 mg/kg, 0.4 mg/kg, 2 mg/kg, or 10 mg/kg of AHRL1 and again on day 1. On day 2, expression of markers associated with the AhR-Treg phenotype increased as the dose of AHRL1 increased. Further, dosing generally correlated with degree of activation of AhR as reflected by CYP1A1, CYP1B1, and AHRR expression in lymph nodes from the same mice. The asterisk (*) indicates a p-value of 0.05 relative to vehicle treatment.
FIGS. 16c and 16d show expression of phenotypic markers, CD25+ICOS+CD62L^low and CD25+CTLA-4+, associated with AhR-Tregs in mice treated with AHRL1. Host mice were treated with 10 mg/kg of AHRL1, 11-Cl-BBQ analog, or vehicle on day 0 and day 1 following donor cell transfer. On day 2, the alloactivated CD4+ donor T cells were identified based on CFSE dilution. The percentage of donor cells in each group expressing the Treg markers were derived from flow histograms. The data represents mean±SEM of 5 mice per treatment. […] Analog 1 is statistically different from AHRL1 and analog 4 (p-value=0.05). […], analog 1, and analog 4 are shown to be AhR ligands that are capable of inducing Tregs in vivo. Accordingly, analogs 1 and 4 are expected to have a similar therapeutic effect in a subject as AHRL1 by suppressing an autoimmune response. Additionally, analog 6, analog 7, and other analogs of 11-Cl-BBQ, that are found to be active AhR ligands using the disclosed screening method, are expected to induce Tregs and suppress CTL to provide treatment and/or prevention of immune-mediated diseases.

| Compound | IC50 [3] [nM] | IC50, competitive inhibition of [3H] 3-MC binding to AhR [3] | XRE-luciferase reporter activity, in words [1] | in vivo serum half-life [2] | fold activation of AhR (reporter gene activity) [1] | expression of CD25+CTLA-4+ on alloactivated CD4+ donor T cells [4] | expression of CD25+ICOS+CD62Llow on alloactivated CD4+ donor T cells [4] | fold lower / less active than TCDD [3] [fold] |
| --- | --- | --- | --- | --- | --- | --- | --- | --- |
| O=c1c2cccc3cccc(c32)c2nc3ccc(Cl)cc3n12 [10-Cl-BBQ, 10-chloro-7H-benzimidazo[2,1-a]benzo[de]Iso-quinolin-7-one] | – | – | activate AhR | approximately two | – | – | – | – |
| O=c1c2cccc3cccc(c32)c2nc3cc(Cl)ccc3n12 [11-Cl-BBQ, 11-chloro-7H-benzimidazo[2,1-a]benzo[de]Iso-quinolin-7-one] | – | – | increased AhR reporter activity as compared to 10-Cl-BBQ alone | approximately two | – | – | – | – |
| O=c1c2cccc3cccc(c32)c2nc3ccccc3n12 [analog 1, 7H-Benzimidazo[2,1-a]benzo[de]isoquinolin-7-one] | 13.7 | – | – | – | 13 fold | statistically different from vehicle | statistically different from vehicle | – |
| O=c1c2ccc3ccc4cccc5cc(c2c3c45)c2nc3ccc(Cl)cc3n12 [analog 3, 11-Chloro-8H-benzimidazo[2,1-a]phenanthro[3,4,5-defg]isoquinolin-8-one] | 77.3 | – | – | – | 2 fold | – | – | 10 |

Further lines, with some results ahead:

| IC50 [3] [nM] | IC50, competitive inhibition of [3H] 3-MC binding to AhR [3] | Compound | XRE-luciferase reporter activity, in words [1] | in vivo serum half-life [2] | fold activation of AhR (reporter gene activity) [1] | expression of CD25+CTLA-4+ on alloactivated CD4+ donor T cells [4] | expression of CD25+ICOS+CD62Llow on alloactivated CD4+ donor T cells [4] | fold lower / less active than TCDD [3] [fold] |
| --- | --- | --- | --- | --- | --- | --- | --- | --- |
| – | inactive | NN1C(=O)c2ccc3c(=O)n4c5ccc(Cl)cc5nc4c4ccc(c2c34)C1=O [analog 2, 2-Amino-10-chlorobenzimidazo[2,1-b]benzo[lmn][3,8]phenanthroline-1,3,6(2H)-trione] | – | – | did not induce reporter activity | – | – | – |
| 5.2 | – | O=c1c2ccc(Cl)c3cccc(c32)c2nc3cc(Cl)ccc3n12 [analog 4, 4,11-Dichloro-7H-benzimidazo[2,1-a]benzo[de]isoquinolin-7-one] | – | – | 19 fold | statistically different from vehicle | statistically different from vehicle | – |
| 45200 | – | O=C(O)c1ccc2c3c1cccc3c(=O)n1c3ccccc3nc21 [analog 5, 7-Oxo-7H-benzimidazo[2,1-a]benzo[de]isoquinoline-3-carboxylic acid] | – | – | did not induce reporter activity | – | – | 1000 |
